Common to all, as to type: ADME
Series [1] in a line: Half life period in the presence of alpha-chymotrypsin at the concentration of 1.0 mg/mL.
Series [2] is described as follows: Half life period in buffer solution at pH 7.4: found to be stable.
A short description of series [3]: Half life period in the presence of alpha-chymotrypsin at the concentration of 0.5 mg/ml.
Series [4] can be described thus: Half life period in the presence of alpha-chymotrypsin at the concentration of 0.25 mg/ml.
A short description of series [5]: Half life period in buffer solution at pH 7.4.

The results in this text go back to ChEMBL document CHEMBL1127222, “Protection of the peptide bond against -chymotrypsin by the prodrug approach” (Bioorg Med Chem Lett, 1993).

For the compound `CC(=O)NC(Cc1ccccc1)C(=O)NCc1ccccc1` (stereo unspecified), the values for the half-life in series [1], in series [3] and in series [4] were 3.9 h, 7.5 h and 15 h, respectively. Moreover, the T1/2 entry in series [2] is reported as “Stable”.
As to `CC(=O)N(CO)C(Cc1ccccc1)C(N)=O` (stereo unspecified), the half-life in series [1] amounted to 0.533 h; in series [5], 0.633 h; in series [3], 0.583 h; in series [4], 0.55 h.
On to `CC(=O)NC(Cc1ccccc1)C(N)=O` (stereo unspecified), for which the half-life is 2.3 h in series [1], 4.9 h in series [3] and 9.6 h in series [4]. The T1/2 result in series [2] is reported as “Stable”.
On to `CC(=O)N(CO)C(Cc1ccccc1)C(=O)NCc1ccccc1` (stereo unspecified), for which the half-life is 1.05 h in series [1], 1.05 h in series [5], 1.07 h in series [3] and 1.08 h in series [4].
